Among the data in ChEMBL document CHEMBL4043086, “Facile access to pseudo-thio-1,2-dimannoside, a new glycomimetic DC-SIGN antagonist” (Bioorg Med Chem, 2017) are IC50 values, retold here.

The structures appear in SMILES notation.

The assay has as its target T1, CD209 antigen (Homo sapiens, UniProt Q9NNX6).
T1 sequence (Q9NNX6 whole entry): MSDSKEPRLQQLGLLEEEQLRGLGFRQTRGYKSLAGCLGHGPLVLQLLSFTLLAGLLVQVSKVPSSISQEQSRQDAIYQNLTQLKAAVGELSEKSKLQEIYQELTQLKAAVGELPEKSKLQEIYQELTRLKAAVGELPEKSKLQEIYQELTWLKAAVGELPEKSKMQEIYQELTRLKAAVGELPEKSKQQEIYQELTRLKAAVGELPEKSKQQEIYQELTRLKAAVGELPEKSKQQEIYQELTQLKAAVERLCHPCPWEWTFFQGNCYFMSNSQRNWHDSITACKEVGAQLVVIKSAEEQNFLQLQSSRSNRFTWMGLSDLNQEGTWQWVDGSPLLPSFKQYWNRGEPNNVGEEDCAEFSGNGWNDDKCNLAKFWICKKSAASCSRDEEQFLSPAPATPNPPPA
In words: Inhibition of binding of immobilized mannosylated BSA to DC-SIGN extracellular domain (66 to 404 residues) (unknown origin) expressed in Escherichia coli by SPR assay. On the technique in general: SPR reads the build-up and loss of mass on a sensor chip optically.
Usually IC50 stands for the concentration at which inhibition is half-maximal. A low value points to greater potency. Compound `COC(=O)[C@H]1C[C@H](OC(=O)C(C)(C)C)[C@@H](S[C@H]2O[C@H](CO)[C@@H](O)[C@H](O)[C@@H]2O)C[C@@H]1C(=O)OC` displayed an IC50 of 776 µM. `COC(=O)[C@H]1C[C@H](OC)[C@@H](S[C@H]2O[C@H](CO)[C@@H](O)[C@H](O)[C@@H]2O)C[C@@H]1C(=O)OC` had a concentration for half-maximal inhibition (IC50) of 776 µM. `COC(=O)[C@H]1C[C@H](OC)[C@@H](O[C@H]2O[C@H](CO)[C@@H](O)[C@H](O)[C@@H]2O)C[C@@H]1C(=O)OC` registered a half-maximal inhibitory concentration (IC50) of 720 µM.
